By pEC50 is commonly meant the EC50 on a negative log10 scale, so that one unit is a factor of ten. One may read the Emax as the size of the effect at its maximum, as opposed to the concentration needed.

pEC50: −log10 of the molar value. Read-outs that look alike come from different tables or passages of the source.

This test addresses T1, human mAChR M1 (Homo sapiens, UniProt P11229).
T1 sequence (P11229 1-460): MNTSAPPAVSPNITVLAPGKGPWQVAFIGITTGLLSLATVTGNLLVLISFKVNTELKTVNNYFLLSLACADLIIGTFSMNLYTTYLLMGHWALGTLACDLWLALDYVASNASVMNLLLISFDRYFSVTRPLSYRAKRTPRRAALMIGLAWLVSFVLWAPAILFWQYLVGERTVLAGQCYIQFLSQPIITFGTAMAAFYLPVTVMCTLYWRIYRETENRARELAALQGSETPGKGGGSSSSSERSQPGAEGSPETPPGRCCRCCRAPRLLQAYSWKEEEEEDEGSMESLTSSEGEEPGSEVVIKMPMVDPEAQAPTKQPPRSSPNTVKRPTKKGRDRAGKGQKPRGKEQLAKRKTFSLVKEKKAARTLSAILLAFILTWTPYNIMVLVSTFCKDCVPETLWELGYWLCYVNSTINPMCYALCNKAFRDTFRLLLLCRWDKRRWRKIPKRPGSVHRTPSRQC
The test is described as follows: mAChR M1 cell-based functional assay: calcium mobilization, positive allosteric modulator mode (increase in EC20 acetylcholine response). The note with it: for Emax: read-out: Human M1 Emax (%). The essentials: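 Calcium-flux assay in CHO-K1 cells stably expressing human M1, loaded with Fluo-4 AM (50 min, 37 °C) and read at 1 Hz. Compound (11-point, 1:3 series) was added at 4 s, EC20 acetylcholine at 144 s and EC80 at 230 s. PAM activity is the concentration-dependent rise in the EC20 response, fitted with a four-parameter logistic.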
A general note: A change in cytosolic calcium serves as a functional read-out for many receptors and channels.

[1] abbreviates: Table 2, human M1, read-out: Human M1 EC50.

With `O=C(NCC1CCCCO1)c1cc(Cc2ccc(-n3cccn3)cc2)c2sccc2n1` (stereo not shown) [Compound 289, 7-[(4-pyrazol-1-ylphenyl)methyl]-N-(tetrahydropyran-2-ylmethyl)thieno[3,2-b]pyridine-5-carboxamide], the negative-log EC50 (pEC50) under setting [1] was 5.94. Under “Table 2, human M1”, the maximal effect (Emax) is 80.7%. For the molecule `Cn1ccc(-c2ccc(Cc3cc(C(=O)NC4CC5(COC5)C4)nc4ccn(C)c34)cn2)n1` [Compound 507, 1-methyl-7-[[6-(1-methylpyrazol-3-yl)-3-pyridyl]methyl]-N-(2-oxaspiro[3.3]heptan-6-yl)pyrrolo[3,2-b]pyridine-5-carboxamide;], the pEC50 under setting [1] was 6.01. Further, for the setting “Table 2, human M1”, the Emax worked out at 77.6%.

As to `COCCNC(=O)c1cc(Cc2ccc(-c3nccs3)cc2)c2sccc2n1` [Compound 373, N-(2-methoxyethyl)-7-[(4-thiazol-2-ylphenyl)methyl]thieno[3,2-b]pyridine-5-carboxamide], the negative-log EC50 (pEC50) under setting [1] was 5.85. For the setting “Table 2, human M1”, the Emax was determined as 79.6%. For `Cn1cc(-c2cc(F)c(Cc3cc(C(=O)N[C@H]4CCCCC[C@@H]4O)nc4ccsc34)c(F)c2)cn1` [Compound 61, 7-[[2,6-difluoro-4-(1-methylpyrazol-4-yl)phenyl]methyl]-N-[(1S,2S)-2-hydroxycycloheptyl]thieno[3,2-b]pyridine-5-carboxamide], in that order: under 5.00 and 64.8%. Take `Cc1ncc(Cc2cc(C(=O)N[C@@H]3COCC[C@H]3O)nc3ccsc23)cn1` [Compound 129, N-[(3R,4R)-4-hydroxytetrahydropyran-3-yl]-7-[(2-methylpyrimidin-5-yl)methyl]thieno[3,2-b]pyridine-5-carboxamide]: the negative-log EC50 (pEC50) under setting [1] was under 5.00. In addition, the Emax (Table 2, human M1) was 51.5%.

On to `O=C(NC1CCOCC1)c1cc(Cc2ccc(C(F)(F)F)nc2)c2sccc2n1` [Compound 89, N-tetrahydropyran-4-yl-7-[[6-(trifluoromethyl)-3-pyridyl]methyl]thieno[3,2-b]pyridine-5-carboxamide], for which, under setting [1], the pEC50 was 5.76. The Emax (Table 2, human M1) turned out to be 71.8%. In the case of `O=C(NC1CN(CC(F)(F)F)C1)c1cc(Cc2ccc(-n3cccn3)cc2)c2sccc2n1` [Compound 432], the negative logarithm of the EC50 (pEC50) under setting [1] was 5.47. Further, under “Table 2, human M1”, the maximal response (Emax) is 47.5%.

Consider `O=C(N[C@@H]1CC[C@H]1O)c1cc(Cc2c(F)cc(-c3cscn3)cc2F)c2sccc2n1` [Compound 274, 7-[(2,6-difluoro-4-thiazol-4-yl-phenyl)methyl]-N-[(1R,2R)-2-hydroxycyclobutyl]thieno[3,2-b]pyridine-5-carboxamide], for which the pEC50 under setting [1] was under 5.00. Besides, the Emax (Table 2, human M1) was found to be 46.8%. For the molecule `O=C(NC1CCOC1)c1cc(Cc2ccc(-n3cccn3)cc2)c2sccc2n1` (stereo not shown) [Compound 440, 7-[(4-pyrazol-1-ylphenyl)methyl]-N-tetrahydrofuran-3-yl-thieno[3,2-b]pyridine-5-carboxamide], the negative logarithm of the EC50 (pEC50) under setting [1] was 5.71. For the same molecule, the Emax (Table 2, human M1) came to 69.3%. As for `Cc1ccc(Oc2cc(C(=O)NC3CCCCNC3=O)nc3ccsc23)cn1` (stereo not shown) [Compound 36, 7-[(6-methyl-3-pyridyl)oxy]-N-(2-oxoazepan-3-yl)thieno[3,2-b]pyridine-5-carboxamide], the negative-log EC50 (pEC50) (Table 1, mAChR M1 cell-based functional assay, PAM mode, species not given, read-out: EC50) was under 5.00. Regarding `CC(C)(C#N)NC(=O)c1cc(Cc2ccc(-n3cccn3)cc2)c2sccc2n1` [Compound 283, N-(1-cyano-1-methyl-ethyl)-7-[(4-pyrazol-1-ylphenyl)methyl]thieno[3,2-b]pyridine-5-carboxamide], under setting [1], the negative-log EC50 (pEC50) is under 5.00. Also, for the setting “Table 2, human M1”, the Emax was found to be 43.1%.

In the case of `Cc1nc(-c2ccc(Cc3cc(C(=O)N[C@H]4CCOC4)nc4ccsc34)cc2)co1` [Compound 161, 7-[[4-(2-methyloxazol-4-yl)phenyl]methyl]-N-[(3S)-tetrahydrofuran-3-yl]thieno[3,2-b]pyridine-5-carboxamide], the pEC50 under setting [1] is 5.45. Also, for the setting “Table 2, human M1”, the maximal effect (Emax) came out at 78.8%. For `Cc1nc(-c2ccc(Cc3cc(C(=O)N[C@H]4CCOC4)nc4ccsc34)cc2)cs1` [Compound 184, 7-[[4-(2-methylthiazol-4-yl)phenyl]methyl]-N-[(3S)-tetrahydrofuran-3-yl]thieno[3,2-b]pyridine-5-carboxamide], in that order: 5.44 and 68.5%. The matching figures for `Cc1ccc(Cc2cc(C(=O)Nc3cc(C)n[nH]3)nc3ccsc23)cn1` [Compound 69, N-(3-methyl-1H-pyrazol-5-yl)-7-[(6-methyl-3-pyridyl)methyl]thieno[3,2-b]pyridine-5-carboxamide]: 5.17 and 80.3%. For `O=C(NC1CCS(=O)(=O)C1)c1cc(Cc2ccc(-n3cccn3)cc2)c2sccc2n1` (stereo not shown) [Compound 439, N-(1,1-dioxothiolan-3-yl)-7-[(4-pyrazol-1-ylphenyl)methyl]thieno[3,2-b]pyridine-5-carboxamide], in that order: 6.40 and 68.1%. For `Cc1cc2nc(C(=O)N[C@H]3CCOC[C@@H]3O)cc(Cc3ccc(-n4cccn4)cc3)c2s1` [Compound 238, N-[(3R,4S)-3-hydroxytetrahydropyran-4-yl]-2-methyl-7-[(4-pyrazol-1-ylphenyl)methyl]thieno[3,2-b]pyridine-5-carboxamide], the negative logarithm of the EC50 (pEC50) under setting [1] is 6.97. Moreover, the Emax (Table 2, human M1) was determined as 84.7%.

As to `Cn1ccc2nc(C(=O)N[C@H]3CCCC[C@@H]3O)cc(Cc3ccc(-c4cscn4)cc3)c21` [Compound 457, N-[(1S,2S)-2-hydroxycyclohexyl]-1-methyl-7-[(4-thiazol-4-ylphenyl)methyl]pyrrolo[3,2-b]pyridine-5-carboxamide], the negative-log EC50 (pEC50) under setting [1] was 7.46. The maximal response (Emax) (Table 2, human M1) worked out at 64.8%.

As to `Cn1cc(-c2ccc(Cc3cc(C(=O)NC4COC4)nc4ccsc34)cn2)cn1` [Compound 341, 7-[[6-(1-methylpyrazol-4-yl)-3-pyridyl]methyl]-N-(oxetan-3-yl)thieno[3,2-b]pyridine-5-carboxamide], the negative logarithm of the EC50 (pEC50) under setting [1] is 5.77. Further, for the setting “Table 2, human M1”, the maximal response (Emax) is 78.8%. For `Cc1csc2c(Cc3ccc(-c4ccn(C)n4)cc3)cc(C(=O)N[C@H]3CCCC[C@@H]3O)nc12` [Compound 312, N-[(1S,2S)-2-hydroxycyclohexyl]-3-methyl-7-[[4-(1-methylpyrazol-3-yl)phenyl]methyl]thieno[3,2-b]pyridine-5-carboxamide], in that order: 6.96 and 65.5%. For `O=C(N[C@H]1CCCC[C@@H]1O)c1cc(Cc2c(F)cc(-c3cscn3)cc2F)c2sccc2n1` [Compound 273, 7-[(2,6-difluoro-4-thiazol-4-yl-phenyl)methyl]-N-[(1S,2S)-2-hydroxycyclohexyl]thieno[3,2-b]pyridine-5-carboxamide], in that order: 6.57 and 73.6%. For the molecule `Cc1cc2nc(C(=O)NC3CCOCC3)cc(Cc3ccc(-n4cccn4)cc3)c2s1` [Compound 239, 2-methyl-7-[(4-pyrazol-1-ylphenyl)methyl]-N-tetrahydropyran-4-yl-thieno[3,2-b]pyridine-5-carboxamide], the negative logarithm of the EC50 (pEC50) under setting [1] was 5.51. Besides, the Emax (Table 2, human M1) was 81.5%. The matching figures for `O=C(NC[C@@H]1CCCO1)c1cc(Cc2ccc(-n3cccn3)cc2)c2sccc2n1` [Compound 286, 7-[(4-pyrazol-1-ylphenyl)methyl]-N-[[(2S)-tetrahydrofuran-2-yl]methyl]thieno[3,2-b]pyridine-5-carboxamide]: 6.69 and 69.3%.

The values above are taken from patent US11111251B2, “Positive allosteric modulators of the muscarinic acetylcholine receptor M1” (Vanderbilt University, priority 2016, dated 2021).
